Assay results as given in ChEMBL document CHEMBL1146860, “Bicyclo[3.1.0]hexyl urea melanin concentrating hormone (MCH) receptor-1 antagonists: impacting hERG liability via aryl modifications” (Bioorg Med Chem Lett, 2006).

Key:
hERG = hERG (Homo sapiens, UniProt Q12809); experiment: Inhibition of hERG channel by rubidium efflux assay at 5 ug/ml; format: toxicity
[1] = biological target: Voltage-gated inwardly rectifying potassium channel KCNH2 (Homo sapiens, UniProt Q12809); experiment: Inhibition of hERG channel by voltage clamp assay; format: toxicity
[2] = biological target: Melanin-concentrating hormone receptor 1 (Homo sapiens, UniProt Q99705); experiment: Binding affinity to MCHR1
[3] = AUC (0-6h) in rat at 10 mg/kg, po; format: ADME, organism-based; set-up: time < 6 hr, dose 10 mg/kg, route oral; conditions: plasma

Chain of hERG (Q12809 whole entry): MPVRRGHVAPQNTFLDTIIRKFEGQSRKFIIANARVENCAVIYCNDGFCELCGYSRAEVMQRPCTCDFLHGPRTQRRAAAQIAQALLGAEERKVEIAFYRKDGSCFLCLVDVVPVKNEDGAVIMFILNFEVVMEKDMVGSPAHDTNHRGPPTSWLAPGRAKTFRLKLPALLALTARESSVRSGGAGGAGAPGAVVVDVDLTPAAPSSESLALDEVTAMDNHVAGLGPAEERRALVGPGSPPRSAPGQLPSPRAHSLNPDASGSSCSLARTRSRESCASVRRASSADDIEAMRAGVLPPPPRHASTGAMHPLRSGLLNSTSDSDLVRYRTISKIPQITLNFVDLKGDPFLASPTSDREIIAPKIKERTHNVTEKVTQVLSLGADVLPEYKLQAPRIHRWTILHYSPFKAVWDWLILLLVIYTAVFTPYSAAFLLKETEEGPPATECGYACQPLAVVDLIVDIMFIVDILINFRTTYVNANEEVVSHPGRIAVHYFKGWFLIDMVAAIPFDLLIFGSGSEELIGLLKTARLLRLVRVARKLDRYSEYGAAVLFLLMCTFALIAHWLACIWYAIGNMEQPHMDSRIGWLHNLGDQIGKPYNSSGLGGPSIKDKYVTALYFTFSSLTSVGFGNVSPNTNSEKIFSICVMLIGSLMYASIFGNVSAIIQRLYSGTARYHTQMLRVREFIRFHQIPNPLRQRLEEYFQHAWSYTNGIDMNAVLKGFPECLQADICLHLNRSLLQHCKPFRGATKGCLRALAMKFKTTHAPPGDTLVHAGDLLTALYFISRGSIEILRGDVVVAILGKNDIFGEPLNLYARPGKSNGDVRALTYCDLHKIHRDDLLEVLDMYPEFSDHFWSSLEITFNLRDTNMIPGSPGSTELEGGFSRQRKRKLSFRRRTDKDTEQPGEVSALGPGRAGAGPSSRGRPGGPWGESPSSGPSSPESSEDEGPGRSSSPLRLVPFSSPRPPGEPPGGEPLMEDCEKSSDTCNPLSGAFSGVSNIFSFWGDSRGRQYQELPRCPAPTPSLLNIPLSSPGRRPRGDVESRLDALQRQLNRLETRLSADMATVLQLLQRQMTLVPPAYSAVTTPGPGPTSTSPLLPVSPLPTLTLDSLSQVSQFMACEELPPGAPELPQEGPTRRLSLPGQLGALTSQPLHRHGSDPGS
Chain of Melanin-concentrating hormone receptor 1 (Q99705 whole entry): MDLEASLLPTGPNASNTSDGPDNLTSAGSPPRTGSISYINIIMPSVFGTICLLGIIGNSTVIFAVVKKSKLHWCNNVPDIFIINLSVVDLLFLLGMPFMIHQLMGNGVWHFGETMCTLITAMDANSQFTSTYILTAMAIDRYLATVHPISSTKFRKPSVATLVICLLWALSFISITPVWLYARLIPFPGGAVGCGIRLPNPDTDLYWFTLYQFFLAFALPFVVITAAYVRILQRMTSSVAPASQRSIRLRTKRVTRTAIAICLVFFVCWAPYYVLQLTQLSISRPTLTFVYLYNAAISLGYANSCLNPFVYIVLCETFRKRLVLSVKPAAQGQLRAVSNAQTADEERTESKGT
Chain of Voltage-gated inwardly rectifying potassium channel KCNH2 (Q12809 whole entry): as the sequence (Q12809 whole entry) above

Structure (SMILES)	inhibition at 5 ug/ml (hERG)	IC50 [1]	Ki [2]	AUC(0-t) at 6 h [3]
CN1CCN(CCCN(C(=O)Nc2ccc(F)c(C(F)(F)F)c2)[C@@H]2CC[C@]3(c4ccc(C#N)cc4)C[C@H]23)CC1	86%	52 nM	–	–
COc1ccc([C@]23CC[C@@H](N(CCCN4CCN(C)CC4)C(=O)Nc4ccc(F)c(C(F)(F)F)c4)[C@H]2C3)cn1	36%	–	–	–
CC(=O)Nc1cccc([C@]23CC[C@@H](N(CCCN4CCN(C)CC4)C(=O)Nc4ccc(F)c(Cl)c4)[C@H]2C3)c1	19%	–	–	–
CN1CCN(CCCN(C(=O)Nc2ccc(F)c(C(F)(F)F)c2)[C@@H]2CC[C@]3(c4ccc5c(N)noc5c4)C[C@H]23)CC1	26%	690 nM	–	–
CN1CCN(CCCN(C(=O)Nc2ccc(F)c(Cl)c2)[C@@H]2CC[C@]3(c4cccc(NC(=O)C5CC5)c4)C[C@H]23)CC1	46%	–	6.8 nM	634 ng·h/mL
CN1CCN(CCCN(C(=O)Nc2ccc(F)c(C(F)(F)F)c2)[C@@H]2CC[C@]3(c4ccc(S(C)(=O)=O)cc4)C[C@H]23)CC1	46%	–	–	–
CN1CCN(CCCN(C(=O)Nc2ccc(F)c(Cl)c2)[C@@H]2CC[C@]3(c4cccc(N5CCCC5=O)c4)C[C@H]23)CC1	14%	–	–	–
CN1CCN(CCCN(C(=O)Nc2ccc(F)c(C(F)(F)F)c2)[C@@H]2CC[C@]3(c4ccc(=O)[nH]c4)C[C@H]23)CC1	9%	–	–	–
CCNC(=O)Nc1cccc([C@]23CC[C@@H](N(CCCN4CCN(C)CC4)C(=O)Nc4ccc(F)c(Cl)c4)[C@H]2C3)c1	17%	–	28 nM	127 ng·h/mL
CN1CCN(CCCN(C(=O)Nc2ccc(F)c(Cl)c2)[C@@H]2CC[C@]3(c4ccccc4)C[C@H]23)CC1	58%	–	–	–
CN1CCN(CCCN(C(=O)Nc2ccc(F)c(C(F)(F)F)c2)[C@@H]2CC[C@]3(c4ccc5c(c4)CC(=O)N5)C[C@H]23)CC1	50%	–	15 nM	–
COc1cccc([C@]23CC[C@@H](N(CCCN4CCN(C)CC4)C(=O)Nc4ccc(F)c(Cl)c4)[C@H]2C3)c1	70%	–	2.7 nM	–
CN1CCN(CCCN(C(=O)Nc2ccc(F)c(C(F)(F)F)c2)[C@@H]2CC[C@]3(c4nccs4)C[C@H]23)CC1	27%	–	–	–
CN1CCN(CCCN(C(=O)Nc2ccc(F)c(Cl)c2)[C@@H]2CC[C@]3(c4cccc(N)c4)C[C@H]23)CC1	25%	–	9.6 nM	–
CN1CCN(CCCN(C(=O)Nc2ccc(F)c(Cl)c2)[C@@H]2CC[C@]3(c4cccc(NC(=O)C(C)(C)C)c4)C[C@H]23)CC1	27%	–	–	–
CN1CCN(CCCN(C(=O)Nc2ccc(F)c(C(F)(F)F)c2)[C@@H]2CC[C@]3(c4ccc5onc(N)c5c4)C[C@H]23)CC1	46%	–	46 nM	–
CN1CCN(CCCN(C(=O)Nc2ccc(F)c(Cl)c2)[C@@H]2CC[C@]3(c4cccnc4)C[C@H]23)CC1	97%	–	–	–
CNC(=O)c1ccc([C@]23CC[C@@H](N(CCCN4CCN(C)CC4)C(=O)Nc4ccc(F)c(C(F)(F)F)c4)[C@H]2C3)cc1	25%	–	–	–
CC(C)C(=O)Nc1cccc([C@]23CC[C@@H](N(CCCN4CCN(C)CC4)C(=O)Nc4ccc(F)c(Cl)c4)[C@H]2C3)c1	37%	–	15.1 nM	339 ng·h/mL
CN1CCN(CCCN(C(=O)Nc2ccc(F)c(Cl)c2)[C@@H]2CC[C@]3(c4ccc(N)cc4)C[C@H]23)CC1	16%	–	4.4 nM	–
CN1CCN(CCCN(C(=O)Nc2ccc(F)c(C(F)(F)F)c2)[C@@H]2CC[C@]3(c4ccsc4)C[C@H]23)CC1	75%	–	–	–
CN1CCN(CCCN(C(=O)Nc2ccc(F)c(Cl)c2)[C@@H]2CC[C@]3(c4cccc(N5CCC5)c4)C[C@H]23)CC1	29%	–	–	–
COC(=O)c1ccc([C@]23CC[C@@H](N(CCCN4CCN(C)CC4)C(=O)Nc4ccc(F)c(C(F)(F)F)c4)[C@H]2C3)cc1 (single isomer, unassigned)	63%	–	–	–
CCC(=O)Nc1cccc([C@]23CC[C@@H](N(CCCN4CCN(C)CC4)C(=O)Nc4ccc(F)c(Cl)c4)[C@H]2C3)c1	34%	–	–	–
CN1CCN(CCCN(C(=O)Nc2ccc(F)c(Cl)c2)[C@@H]2CC[C@]3(c4ccc(NC(=O)OC(C)(C)C)cc4)C[C@H]23)CC1	87%	–	–	–
CN1CCN(CCCN(C(=O)Nc2ccc(F)c(Cl)c2)[C@@H]2CC[C@]3(c4ccc(F)cc4)C[C@H]23)CC1	87%	–	–	–
CC(=O)Nc1ccc([C@]23CC[C@@H](N(CCCN4CCN(C)CC4)C(=O)Nc4ccc(F)c(Cl)c4)[C@H]2C3)cc1	18%	–	–	–
